Results as given in ChEMBL document CHEMBL1201862, “PubChem BioAssay data set” (2004).
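Assay format: 96-well plates, 48-hour exposure. Here, GI50 denotes the concentration required for 50% inhibition of growth.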 Calls of active or inactive are those of the source. No stated cut-off is given here; in the data, active = GI50 up to about 1.1 µM and inactive = higher.

Key:
Assay in all cases: inhibition of tumour cell growth, NCI panel, 48 h
[1] = test system: CCRF-CEM
[2] = test system: SF-268
[3] = test system: M14
[4] = test system: RPMI-8226
[5] = test system: Hs-578T
[6] = test system: OVCAR-8
[7] = test system: SW-620
[8] = test system: RXF 393
[9] = test system: SF-539
[10] = test system: A498
[11] = test system: OVCAR-4
[12] = test system: SN12C
[13] = test system: SK-MEL-2
[14] = test system: PC-3
[15] = test system: LOX IMVI
[16] = test system: K562
[17] = test system: IGROV-1
[18] = test system: SK-OV-3
[19] = test system: OVCAR-3
[20] = test system: U-251

| Structure (SMILES) | GI50 [1] | GI50 [2] | GI50 [3] | GI50 [4] | GI50 [5] | GI50 [6] | GI50 [7] | GI50 [8] | GI50 [9] | GI50 [10] | GI50 [11] | GI50 [12] | GI50 [13] | GI50 [14] | GI50 [15] | GI50 [16] | GI50 [17] | GI50 [18] | GI50 [19] | GI50 [20] |
| --- | --- | --- | --- | --- | --- | --- | --- | --- | --- | --- | --- | --- | --- | --- | --- | --- | --- | --- | --- | --- |
| NC(=O)NNc1nc2ccccc2c(=O)n1NC(=O)C(=O)Nc1ccc(Cl)cc1Cl | > 100 µM (inactive) | > 100 µM (inactive) | > 100 µM (inactive) | > 100 µM (inactive) | > 100 µM (inactive) | > 100 µM (inactive) | > 100 µM (inactive) | > 100 µM (inactive) | > 100 µM (inactive) | > 100 µM (inactive) | > 100 µM (inactive) | > 100 µM (inactive) | > 100 µM (inactive) | > 100 µM (inactive) | > 100 µM (inactive) | > 100 µM (inactive) | 64 µM (inactive) | > 100 µM (inactive) | > 100 µM (inactive) | > 100 µM (inactive) |
| CC1CC(=O)N(N(C)C)C2(C#N)C(=O)N=C(N)C12C#N (configuration not stated) | 23.2 µM (inactive) | > 100 µM (inactive) | > 100 µM (inactive) | 35.4 µM (inactive) | > 100 µM (inactive) | > 100 µM (inactive) | 35.4 µM (inactive) | > 100 µM (inactive) | > 100 µM (inactive) | > 100 µM (inactive) | > 100 µM (inactive) | > 100 µM (inactive) | > 100 µM (inactive) | > 100 µM (inactive) | > 100 µM (inactive) | 27.2 µM (inactive) | > 100 µM (inactive) | > 100 µM (inactive) |  | > 100 µM (inactive) |
| COC(=O)c1c(C#C[Si](C)(C)C)c(C#C[Si](C)(C)C)c(C#C[Si](C)(C)C)c(C#C[Si](C)(C)C)c1C(=O)OC | > 100 µM (inactive) | > 100 µM (inactive) | > 100 µM (inactive) | > 100 µM (inactive) | > 100 µM (inactive) | > 100 µM (inactive) | > 100 µM (inactive) | > 100 µM (inactive) | > 100 µM (inactive) | > 100 µM (inactive) | > 100 µM (inactive) | > 100 µM (inactive) | > 100 µM (inactive) | > 100 µM (inactive) |  | > 100 µM (inactive) | > 100 µM (inactive) | > 100 µM (inactive) | > 100 µM (inactive) | > 100 µM (inactive) |
| CC(C)(C)OC(=O)N(CCCCNC(=O)OCc1ccccc1)CCCNC(=O)OCc1ccccc1 | 16.3 µM (inactive) | > 100 µM (inactive) | 51.8 µM (inactive) | 12.6 µM (inactive) | > 100 µM (inactive) | 32.4 µM (inactive) | 71 µM (inactive) | 30 µM (inactive) | > 100 µM (inactive) | 21.8 µM (inactive) | 33 µM (inactive) | 53.3 µM (inactive) | 55.7 µM (inactive) | 10.7 µM (inactive) |  | 23.3 µM (inactive) | > 100 µM (inactive) | > 100 µM (inactive) | > 100 µM (inactive) | 35.6 µM (inactive) |
| COc1cc(S(=O)(=O)Nc2ccc(-c3csc(N4C(=O)C(Cl)C4c4cccs4)n3)cc2)ccc1Cl (configuration not stated) | 4.1 µM (inactive) | 39 µM (inactive) | > 100 µM (inactive) | 26.9 µM (inactive) | > 100 µM (inactive) | 70.6 µM (inactive) | 43.4 µM (inactive) | 23.5 µM (inactive) | 32.8 µM (inactive) | > 100 µM (inactive) | 21.6 µM (inactive) | 82.6 µM (inactive) | > 100 µM (inactive) | > 100 µM (inactive) | 2.43 µM (inactive) | 31.8 µM (inactive) | 18.2 µM (inactive) | > 100 µM (inactive) | > 100 µM (inactive) |  |
| C[N+]1(C)CC=C(N2CCOCC2)CC1 | > 10 µM (inactive) | > 10 µM (inactive) | > 10 µM (inactive) | > 10 µM (inactive) | > 10 µM (inactive) | > 10 µM (inactive) | > 10 µM (inactive) | > 10 µM (inactive) | > 10 µM (inactive) | > 10 µM (inactive) | > 10 µM (inactive) | > 10 µM (inactive) | > 10 µM (inactive) | > 10 µM (inactive) | > 10 µM (inactive) | > 10 µM (inactive) | > 10 µM (inactive) | > 10 µM (inactive) | > 10 µM (inactive) | > 10 µM (inactive) |
| OCC1OC(c2scc3c(=S)[nH]cnc23)C(O)C1O (configuration not stated) | 20.8 µM (inactive) | 21.2 µM (inactive) | 6.53 µM (inactive) | 9.31 µM (inactive) | 1.77 µM (inactive) | 1.24 µM (inactive) | 6.76 µM (inactive) | 11.9 µM (inactive) | 8.81 µM (inactive) | 6.84 µM (inactive) | 4.01 µM (inactive) | 6.15 µM (inactive) | 13.4 µM (inactive) | 2.53 µM (inactive) | 2.86 µM (inactive) | 13.6 µM (inactive) | 9.62 µM (inactive) | 2.54 µM (inactive) | 2.19 µM (inactive) | > 93.3 µM (inactive) |
| CCCCCCCCCCC[N+]1(Cc2ccccc2)CC2CCN(Cc3ccccc3)CC2C1 (configuration not stated) | 0.261 µM (active) | 0.555 µM (active) | 0.383 µM (active) | 0.101 µM (active) | 0.354 µM (active) | 0.422 µM (active) | 0.381 µM (active) | 0.587 µM (active) | 1.15 µM (inactive) | 1.5 µM (inactive) | 0.679 µM (active) | 0.327 µM (active) | 0.261 µM (active) | 0.234 µM (active) | 0.382 µM (active) | 0.125 µM (active) | 0.429 µM (active) | 1.75 µM (inactive) | 0.371 µM (active) | 0.261 µM (active) |
| CCOC(=O)/C=C(/C(=O)OCC)n1cc(C)c(=O)n(Cc2cnnn2COCCOC(C)=O)c1=O | 2.17 µM (inactive) | 17.4 µM (inactive) | 14.7 µM (inactive) | 8.59 µM (inactive) | 19.1 µM (inactive) | 14.7 µM (inactive) | 3.81 µM (inactive) | 2.64 µM (inactive) | 5.22 µM (inactive) | 29.2 µM (inactive) | 24.7 µM (inactive) | 22.1 µM (inactive) | 28.4 µM (inactive) | 17.2 µM (inactive) | 14.8 µM (inactive) | 2.99 µM (inactive) | 17 µM (inactive) | > 100 µM (inactive) | 15.3 µM (inactive) | 20.4 µM (inactive) |
| N=C1N(/N=C/c2ccccn2)/C(=N\c2ccccc2)C(=S)N1c1ccccc1 | 2.05 µM (inactive) | 5.12 µM (inactive) |  | > 100 µM (inactive) | 11.5 µM (inactive) | 3.6 µM (inactive) | 3.47 µM (inactive) | 3.15 µM (inactive) | 3.77 µM (inactive) | 19.4 µM (inactive) | 11.7 µM (inactive) | 5.31 µM (inactive) | 2.14 µM (inactive) | 3.57 µM (inactive) | 2.22 µM (inactive) | 3.33 µM (inactive) | 5.05 µM (inactive) | 16.6 µM (inactive) |  | 8.18 µM (inactive) |
| CCOC(=O)/C=C/[C@H](O)[C@@H](O)/C=C/C(=O)OCC | 8.34 µM (inactive) | 34.2 µM (inactive) |  | 21.2 µM (inactive) | 34.8 µM (inactive) | 19.6 µM (inactive) | 17 µM (inactive) | 20.2 µM (inactive) | 33.5 µM (inactive) | 42.7 µM (inactive) | 31.8 µM (inactive) | 26.6 µM (inactive) | 30.8 µM (inactive) | 23.3 µM (inactive) | 23.9 µM (inactive) | 10.6 µM (inactive) | 30.7 µM (inactive) | 62.2 µM (inactive) | 20.1 µM (inactive) | 31 µM (inactive) |
| Cc1ccc(C(=O)Nc2ccc(CP(=O)(O)O)cc2)cc1NC(=O)c1cccc(NC(=O)Nc2cccc(C(=O)Nc3cc(C(=O)Nc4ccc(CP(=O)(O)O)cc4)ccc3C)c2)c1 | > 100 µM (inactive) | > 100 µM (inactive) | > 100 µM (inactive) | > 100 µM (inactive) | > 100 µM (inactive) | > 100 µM (inactive) | > 100 µM (inactive) | > 100 µM (inactive) | > 100 µM (inactive) | > 100 µM (inactive) | > 100 µM (inactive) | > 100 µM (inactive) | > 100 µM (inactive) | > 100 µM (inactive) | > 100 µM (inactive) | > 100 µM (inactive) | > 100 µM (inactive) | > 100 µM (inactive) | > 100 µM (inactive) | > 100 µM (inactive) |
| O=C1O[B-](c2ccccc2)(c2ccccc2)[NH+]2CCCC12 (configuration not stated) | > 100 µM (inactive) | > 100 µM (inactive) | 40.5 µM (inactive) | 72.8 µM (inactive) | 56.6 µM (inactive) | 74 µM (inactive) | 63.4 µM (inactive) | 43.5 µM (inactive) | 55.6 µM (inactive) | 55.7 µM (inactive) | > 100 µM (inactive) | > 100 µM (inactive) | 97.7 µM (inactive) | 35 µM (inactive) | > 100 µM (inactive) | 67.6 µM (inactive) | > 100 µM (inactive) | > 100 µM (inactive) | 38.7 µM (inactive) | > 100 µM (inactive) |
| C=C1C(OC2O[C@@H]3O[C@@]4(C)CC[C@H]5[C@H](C)CC[C@@H](C2=C)[C@@]35O4)O[C@@H]2O[C@@]3(C)CC[C@H]4[C@H](C)CC[C@@H]1[C@@]24O3 (some centres not stated) | > 50 µM (inactive) | > 50 µM (inactive) | > 50 µM (inactive) | > 50 µM (inactive) | > 50 µM (inactive) |  | > 50 µM (inactive) | > 50 µM (inactive) | > 50 µM (inactive) | > 50 µM (inactive) | > 50 µM (inactive) | > 50 µM (inactive) | > 50 µM (inactive) | > 50 µM (inactive) | > 50 µM (inactive) | > 50 µM (inactive) | > 50 µM (inactive) | > 50 µM (inactive) | > 50 µM (inactive) | > 50 µM (inactive) |
